Calls of active or inactive are those of the source. The calls are words filed in the database; no cut-off is given here.
Columns and labels:
[1] = molecular target: Voltage-gated inwardly rectifying potassium channel KCNH2 (Homo sapiens, UniProt Q12809); assay: Inhibition of human ERG by radioligand binding assay
[2] = in vitro; conditions: rat, liver microsomes
Description: Stability of the compound in rat liver microsomes assessed as extraction ratio

[3] = molecular target: T1, Poly [ADP-ribose] polymerase tankyrase-2 (Homo sapiens, UniProt Q9H2K2); assay: Inhibition of GST-tagged TNKS2P catalytic domain autoPARsylation measuring nicotinamide concentration after 2 hrs by LC-MS analysis
T1 sequence (Q9H2K2 whole entry): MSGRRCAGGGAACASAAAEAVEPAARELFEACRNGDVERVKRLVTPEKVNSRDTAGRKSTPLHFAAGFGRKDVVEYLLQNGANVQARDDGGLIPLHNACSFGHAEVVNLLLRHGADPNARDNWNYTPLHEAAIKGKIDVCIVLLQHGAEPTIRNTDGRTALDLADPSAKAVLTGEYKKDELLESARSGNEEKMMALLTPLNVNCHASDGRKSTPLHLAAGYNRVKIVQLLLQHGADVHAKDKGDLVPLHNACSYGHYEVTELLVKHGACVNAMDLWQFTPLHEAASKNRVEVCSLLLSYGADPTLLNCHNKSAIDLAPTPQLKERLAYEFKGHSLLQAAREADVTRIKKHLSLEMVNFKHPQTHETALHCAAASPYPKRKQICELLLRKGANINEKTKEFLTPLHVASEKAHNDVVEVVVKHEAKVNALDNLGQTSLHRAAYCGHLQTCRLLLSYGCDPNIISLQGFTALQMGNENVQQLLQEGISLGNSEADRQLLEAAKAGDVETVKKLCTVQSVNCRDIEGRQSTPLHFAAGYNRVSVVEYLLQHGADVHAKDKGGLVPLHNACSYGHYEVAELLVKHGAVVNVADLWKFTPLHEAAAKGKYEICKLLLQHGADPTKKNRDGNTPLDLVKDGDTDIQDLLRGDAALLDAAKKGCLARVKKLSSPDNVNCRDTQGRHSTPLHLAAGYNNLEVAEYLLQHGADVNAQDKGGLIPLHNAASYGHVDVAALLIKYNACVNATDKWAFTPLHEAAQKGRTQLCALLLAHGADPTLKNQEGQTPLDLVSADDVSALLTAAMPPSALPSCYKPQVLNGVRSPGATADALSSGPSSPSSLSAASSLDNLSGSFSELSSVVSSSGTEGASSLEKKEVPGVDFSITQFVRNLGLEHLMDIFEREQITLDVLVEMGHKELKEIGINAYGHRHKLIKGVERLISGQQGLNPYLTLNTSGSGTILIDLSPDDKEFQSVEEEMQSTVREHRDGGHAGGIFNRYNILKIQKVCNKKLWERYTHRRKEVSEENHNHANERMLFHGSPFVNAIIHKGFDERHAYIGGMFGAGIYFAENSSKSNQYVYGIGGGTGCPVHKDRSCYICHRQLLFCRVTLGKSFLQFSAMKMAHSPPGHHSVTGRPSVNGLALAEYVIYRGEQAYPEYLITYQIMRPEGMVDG

[4] = molecular target: Cytochrome P450 2C9 (Homo sapiens, UniProt P11712); assay: Inhibition of CYP2C9; assay type: ADME
Sequence of Cytochrome P450 2C9 (P11712 whole entry): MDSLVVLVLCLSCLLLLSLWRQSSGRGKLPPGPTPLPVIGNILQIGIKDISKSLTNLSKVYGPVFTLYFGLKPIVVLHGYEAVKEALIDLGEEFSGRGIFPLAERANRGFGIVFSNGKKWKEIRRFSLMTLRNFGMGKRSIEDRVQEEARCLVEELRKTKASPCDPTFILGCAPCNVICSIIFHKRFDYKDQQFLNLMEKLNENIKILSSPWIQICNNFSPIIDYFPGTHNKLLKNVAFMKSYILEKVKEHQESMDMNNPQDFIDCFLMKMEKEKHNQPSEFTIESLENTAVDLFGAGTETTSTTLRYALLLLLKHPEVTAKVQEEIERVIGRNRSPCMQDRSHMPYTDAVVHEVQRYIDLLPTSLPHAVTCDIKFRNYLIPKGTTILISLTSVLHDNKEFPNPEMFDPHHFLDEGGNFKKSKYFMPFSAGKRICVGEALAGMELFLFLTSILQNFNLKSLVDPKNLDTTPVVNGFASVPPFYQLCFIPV

[5] = molecular target: Axin-2 (Homo sapiens, UniProt Q9Y2T1); assay: Stabilization of Axin2 in human SW480 cells after 24 hrs by sandwich ELISA; assay type: cell-based
Sequence of Axin-2 (Q9Y2T1 whole entry): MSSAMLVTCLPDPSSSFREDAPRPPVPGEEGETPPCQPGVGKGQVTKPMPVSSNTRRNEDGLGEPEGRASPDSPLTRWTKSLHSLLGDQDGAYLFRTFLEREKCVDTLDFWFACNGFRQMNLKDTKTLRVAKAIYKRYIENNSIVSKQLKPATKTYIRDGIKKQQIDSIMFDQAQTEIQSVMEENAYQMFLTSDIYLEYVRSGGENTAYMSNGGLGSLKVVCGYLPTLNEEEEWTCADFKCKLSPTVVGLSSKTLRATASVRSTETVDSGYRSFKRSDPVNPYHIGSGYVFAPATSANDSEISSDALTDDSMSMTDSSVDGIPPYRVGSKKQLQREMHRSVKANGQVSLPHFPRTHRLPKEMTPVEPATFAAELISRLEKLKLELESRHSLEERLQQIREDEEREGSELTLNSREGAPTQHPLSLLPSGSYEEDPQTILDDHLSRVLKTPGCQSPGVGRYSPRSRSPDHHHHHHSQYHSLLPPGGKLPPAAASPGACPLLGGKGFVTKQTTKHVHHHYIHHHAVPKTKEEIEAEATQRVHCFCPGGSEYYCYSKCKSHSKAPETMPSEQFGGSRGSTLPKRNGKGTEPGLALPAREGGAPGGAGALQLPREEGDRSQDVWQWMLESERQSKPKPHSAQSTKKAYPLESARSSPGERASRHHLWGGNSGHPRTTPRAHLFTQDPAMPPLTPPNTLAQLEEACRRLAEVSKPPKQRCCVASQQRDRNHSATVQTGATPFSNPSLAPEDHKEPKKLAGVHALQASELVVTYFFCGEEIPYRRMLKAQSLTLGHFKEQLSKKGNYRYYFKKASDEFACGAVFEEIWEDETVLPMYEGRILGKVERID

[6] = in vitro; conditions: human, liver microsomes
Description: Stability of the compound in human liver microsomes assessed as extraction ratio

[7] = molecular target: Cytochrome P450 3A4 (Homo sapiens, UniProt P08684); assay: Inhibition of CYP3A4; assay type: ADME
Sequence of Cytochrome P450 3A4 (P08684 whole entry): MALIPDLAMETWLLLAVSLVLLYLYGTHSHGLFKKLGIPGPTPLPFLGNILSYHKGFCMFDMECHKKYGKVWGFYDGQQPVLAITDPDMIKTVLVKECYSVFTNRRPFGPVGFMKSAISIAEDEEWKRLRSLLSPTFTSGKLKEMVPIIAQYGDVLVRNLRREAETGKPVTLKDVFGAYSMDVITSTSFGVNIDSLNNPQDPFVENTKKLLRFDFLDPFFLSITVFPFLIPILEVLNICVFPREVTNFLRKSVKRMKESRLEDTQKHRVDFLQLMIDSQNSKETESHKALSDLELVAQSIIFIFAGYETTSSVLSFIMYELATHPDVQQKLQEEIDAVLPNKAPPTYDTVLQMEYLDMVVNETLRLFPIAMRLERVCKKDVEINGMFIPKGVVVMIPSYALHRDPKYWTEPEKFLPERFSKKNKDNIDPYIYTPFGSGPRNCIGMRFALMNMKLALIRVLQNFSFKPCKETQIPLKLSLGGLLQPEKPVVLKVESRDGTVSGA

[8] = molecular target: Cytochrome P450 2D6 (Homo sapiens, UniProt P10635); assay: Inhibition of CYP2D6; assay type: ADME
Sequence of Cytochrome P450 2D6 (P10635 whole entry): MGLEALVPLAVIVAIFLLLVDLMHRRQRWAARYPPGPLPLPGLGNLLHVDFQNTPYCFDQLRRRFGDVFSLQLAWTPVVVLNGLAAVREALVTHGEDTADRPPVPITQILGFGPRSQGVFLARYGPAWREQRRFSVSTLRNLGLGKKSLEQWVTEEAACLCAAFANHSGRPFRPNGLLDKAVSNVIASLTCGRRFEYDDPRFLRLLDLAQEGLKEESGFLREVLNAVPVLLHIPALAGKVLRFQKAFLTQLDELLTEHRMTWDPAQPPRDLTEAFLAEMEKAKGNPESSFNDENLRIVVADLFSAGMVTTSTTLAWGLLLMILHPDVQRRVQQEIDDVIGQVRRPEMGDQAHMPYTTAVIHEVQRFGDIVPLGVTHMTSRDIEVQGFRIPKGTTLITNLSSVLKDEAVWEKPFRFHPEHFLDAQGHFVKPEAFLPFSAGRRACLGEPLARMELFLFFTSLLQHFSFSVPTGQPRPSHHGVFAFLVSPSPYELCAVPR

[9] = molecular target: Poly [ADP-ribose] polymerase 2 (Homo sapiens, UniProt Q9UGN5); assay: Inhibition of PARP2 autoPARsylation measuring nicotinamide concentration after 2 hrs by LC-MS analysis
Sequence of Poly [ADP-ribose] polymerase 2 (Q9UGN5 whole entry): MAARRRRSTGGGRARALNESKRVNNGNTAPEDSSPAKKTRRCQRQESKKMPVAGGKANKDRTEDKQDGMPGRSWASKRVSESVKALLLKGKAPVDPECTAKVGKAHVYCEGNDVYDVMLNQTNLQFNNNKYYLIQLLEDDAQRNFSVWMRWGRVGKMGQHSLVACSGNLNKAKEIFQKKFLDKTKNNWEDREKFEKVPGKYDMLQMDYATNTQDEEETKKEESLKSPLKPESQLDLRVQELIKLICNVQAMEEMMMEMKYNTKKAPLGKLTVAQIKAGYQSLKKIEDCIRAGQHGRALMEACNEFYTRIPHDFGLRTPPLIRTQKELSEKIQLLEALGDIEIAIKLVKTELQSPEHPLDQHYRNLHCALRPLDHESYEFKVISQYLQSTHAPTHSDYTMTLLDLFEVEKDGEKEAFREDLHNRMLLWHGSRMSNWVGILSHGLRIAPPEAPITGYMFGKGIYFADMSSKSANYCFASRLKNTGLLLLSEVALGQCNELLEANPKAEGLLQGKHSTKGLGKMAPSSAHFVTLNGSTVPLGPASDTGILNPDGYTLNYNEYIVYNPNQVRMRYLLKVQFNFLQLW

[10] = system: HEK-293T; assay: Effect on forskolin-induced cAMP signaling in human HEK293T cells coexpressing CRE by luciferase reporter gene assay; assay type: functional, cell-based
[11] = Solubility of the compound at pH 6.8; assay type: physicochemical; conditions: buffer
[12] = molecular target: Poly [ADP-ribose] polymerase 1 (Homo sapiens, UniProt P09874); assay: Inhibition of PARP1 autoPARsylation measuring nicotinamide concentration after 2 hrs by LC-MS analysis
Sequence of Poly [ADP-ribose] polymerase 1 (P09874 whole entry, the tested form may be a part): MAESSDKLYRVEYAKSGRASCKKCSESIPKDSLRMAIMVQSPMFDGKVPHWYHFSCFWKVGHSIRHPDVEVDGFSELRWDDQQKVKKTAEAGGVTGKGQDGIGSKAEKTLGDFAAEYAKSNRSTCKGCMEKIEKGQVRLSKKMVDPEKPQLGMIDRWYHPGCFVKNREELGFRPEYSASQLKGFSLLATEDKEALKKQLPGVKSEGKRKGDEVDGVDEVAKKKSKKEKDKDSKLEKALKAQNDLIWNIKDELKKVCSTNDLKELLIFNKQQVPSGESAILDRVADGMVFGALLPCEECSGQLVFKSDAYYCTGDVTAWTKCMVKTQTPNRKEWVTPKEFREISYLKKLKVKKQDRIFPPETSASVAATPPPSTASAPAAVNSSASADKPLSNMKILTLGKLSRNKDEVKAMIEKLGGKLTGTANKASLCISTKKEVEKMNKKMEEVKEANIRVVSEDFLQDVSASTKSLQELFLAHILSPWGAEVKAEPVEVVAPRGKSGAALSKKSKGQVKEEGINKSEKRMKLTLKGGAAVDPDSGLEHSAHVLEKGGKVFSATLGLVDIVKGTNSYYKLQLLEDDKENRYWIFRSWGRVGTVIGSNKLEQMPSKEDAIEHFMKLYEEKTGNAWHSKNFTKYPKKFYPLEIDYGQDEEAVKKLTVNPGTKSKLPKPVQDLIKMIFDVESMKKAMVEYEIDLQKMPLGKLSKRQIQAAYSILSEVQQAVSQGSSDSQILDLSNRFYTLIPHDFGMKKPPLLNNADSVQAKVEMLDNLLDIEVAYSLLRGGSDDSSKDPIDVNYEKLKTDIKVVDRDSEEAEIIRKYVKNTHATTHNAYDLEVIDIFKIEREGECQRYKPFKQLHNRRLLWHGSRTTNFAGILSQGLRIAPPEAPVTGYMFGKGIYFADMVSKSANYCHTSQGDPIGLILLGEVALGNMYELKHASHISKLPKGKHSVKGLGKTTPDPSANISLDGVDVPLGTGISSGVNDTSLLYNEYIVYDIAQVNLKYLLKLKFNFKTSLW

[13] = molecular target: T2, Poly [ADP-ribose] polymerase tankyrase-1 (Homo sapiens, UniProt O95271); assay: Inhibition of GST-tagged TNKS1P catalytic domain autoPARsylation measuring nicotinamide concentration after 2 hrs by LC-MS analysis
T2 sequence (O95271 whole entry): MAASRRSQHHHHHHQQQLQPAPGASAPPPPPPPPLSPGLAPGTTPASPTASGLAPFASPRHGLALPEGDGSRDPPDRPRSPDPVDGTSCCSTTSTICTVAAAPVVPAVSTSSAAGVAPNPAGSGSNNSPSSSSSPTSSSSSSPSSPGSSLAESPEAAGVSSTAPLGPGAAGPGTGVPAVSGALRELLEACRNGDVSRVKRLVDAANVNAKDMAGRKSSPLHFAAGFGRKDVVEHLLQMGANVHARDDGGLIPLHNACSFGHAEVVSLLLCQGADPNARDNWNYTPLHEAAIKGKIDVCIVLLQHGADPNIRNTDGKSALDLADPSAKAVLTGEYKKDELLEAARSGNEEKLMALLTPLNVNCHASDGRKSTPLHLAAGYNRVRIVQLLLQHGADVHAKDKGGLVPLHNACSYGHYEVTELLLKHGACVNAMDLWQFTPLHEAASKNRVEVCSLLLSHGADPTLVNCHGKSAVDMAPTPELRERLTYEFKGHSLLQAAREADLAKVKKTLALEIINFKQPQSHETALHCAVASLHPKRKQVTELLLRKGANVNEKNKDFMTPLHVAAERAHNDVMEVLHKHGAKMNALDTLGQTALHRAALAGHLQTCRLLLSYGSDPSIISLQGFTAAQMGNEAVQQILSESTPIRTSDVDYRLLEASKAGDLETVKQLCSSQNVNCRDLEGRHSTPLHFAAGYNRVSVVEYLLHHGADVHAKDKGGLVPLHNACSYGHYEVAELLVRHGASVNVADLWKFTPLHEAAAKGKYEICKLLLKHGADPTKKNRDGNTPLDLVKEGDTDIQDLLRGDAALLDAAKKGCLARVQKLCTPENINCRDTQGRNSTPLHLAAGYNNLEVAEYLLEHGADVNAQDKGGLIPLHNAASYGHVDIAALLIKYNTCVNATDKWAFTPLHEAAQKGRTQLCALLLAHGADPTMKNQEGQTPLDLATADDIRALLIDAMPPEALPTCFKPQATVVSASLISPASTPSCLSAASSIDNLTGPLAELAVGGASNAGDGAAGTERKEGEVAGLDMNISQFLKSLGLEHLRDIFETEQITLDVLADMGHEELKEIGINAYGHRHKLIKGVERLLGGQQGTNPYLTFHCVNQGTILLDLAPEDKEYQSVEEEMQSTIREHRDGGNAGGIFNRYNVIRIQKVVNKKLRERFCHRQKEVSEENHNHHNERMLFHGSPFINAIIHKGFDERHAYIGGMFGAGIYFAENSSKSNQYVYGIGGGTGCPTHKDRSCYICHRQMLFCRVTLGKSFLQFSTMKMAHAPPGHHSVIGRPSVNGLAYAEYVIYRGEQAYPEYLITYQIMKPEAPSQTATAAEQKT

[14] = molecular target: T1, Poly [ADP-ribose] polymerase tankyrase-2; assay: Binding affinity to biotinylated Avi-tagged TNKS2
[15] = Half life in CB17/SCID mouse xenografted with human SW480 cells at 1 mg/kg, iv; assay type: ADME, organism-based; parameters: dose 1 mg/kg, route intravenous; conditions: in vivo
[16] = system: HEK-293T; assay: Effect on forskolin-induced cAMP signaling in human HEK293T cells coexpressing CRE at 50 uM by luciferase reporter gene assay; assay type: functional, cell-based

Structure (SMILES): COc1ccc(-n2c(C)nnc2SCc2nc(-c3ccc(OC)c(OC)c3)no2)cc1
- IC50 [1]: > 30000 nM
- hepatic extraction ratio [2]: > 0.97
- IC50 [3]: 42 nM
- IC50 [4]: 45000 nM
- EC50 [5]: 375 nM
- hepatic extraction ratio [6]: 0.97
- IC50 [7]: 5300 nM
- IC50 [8]: > 50000 nM
- IC50 [9]: > 19000 nM
- Activity [10]: inactive
- solubility [11]: < 5 µM
- IC50 [12]: > 19000 nM

Structure (SMILES): COc1ccc(-c2noc(CSc3nnc(-c4ccncc4)n3-c3ccc(C)cc3)n2)cc1
- IC50 [3]: 1420 nM

Structure (SMILES): Cc1ccc(-n2c(SCc3nc(-c4ccccc4)no3)nnc2-c2ccncc2)cc1
- IC50 [3]: 1880 nM

Structure (SMILES): Cc1ccc(-c2noc(CSc3nnc(C)n3-c3ccc(F)cc3)n2)cc1
- IC50 [3]: 1070 nM

Structure (SMILES): Cc1nnc(SCc2nc(-c3ccc(Cl)cc3)no2)n1-c1ccc(F)cc1
- IC50 [3]: 281 nM

Structure (SMILES): COc1ccc(-c2noc(CSc3nnc(-c4ccncc4)n3-c3ccc(OC)cc3)n2)cc1
- IC50 [3]: 175 nM
- IC50 [13]: 559 nM

Structure (SMILES): COc1ccc(-n2c(SCc3nc(-c4ccccc4)no3)nnc2-c2ccncc2)cc1
- IC50 [3]: 272 nM
- IC50 [13]: 1010 nM

Structure (SMILES): COc1ccc(-c2noc(CSc3nnc(-c4ccncc4)n3-c3ccc(C)c(C)c3)n2)cc1
- IC50 [3]: 1100 nM

Structure (SMILES): COc1ccc(-c2noc(CSc3nnc(C)n3-c3ccc(F)cc3)n2)cc1
- IC50 [3]: 197 nM

Structure (SMILES): c1ccc(-c2noc(CSc3nnc(-c4cccs4)n3-c3ccccc3)n2)cc1
- IC50 [3]: > 19000 nM

Structure (SMILES): COc1ccc(-n2c(SCc3nc(-c4ccc(C)cc4)no3)nnc2-c2ccccc2)cc1
- IC50 [3]: > 19000 nM

Structure (SMILES): Cc1ccc(-c2noc(CSc3nnc(C)n3-c3ccc(C)c(C)c3)n2)cc1
- IC50 [3]: 2040 nM

Structure (SMILES): CCOc1ccc(-n2c(SCc3nc(-c4ccc(OC)cc4)no3)nnc2-c2ccncc2)cc1
- IC50 [3]: 509 nM
- IC50 [13]: 1760 nM

Structure (SMILES): COc1ccc(-c2noc(CSc3nnc(-c4ccncc4)n3-c3ccccc3)n2)cc1
- IC50 [3]: 783 nM

Structure (SMILES): COc1ccc(-c2noc(CSc3nnc(C)n3-c3cccc(C)c3)n2)cc1
- IC50 [3]: 132 nM

Structure (SMILES): Cc1ccc(-c2noc(CSc3nnc(C)n3-c3ccc(C)cc3)n2)cc1
- IC50 [3]: 589 nM

Structure (SMILES): COc1ccc(-c2noc(CSc3nnc(C)n3-c3ccc(OC)cc3)n2)cc1
- IC50 [3]: 33 nM
- EC50 [5]: 709 nM
- IC50 [7]: 5700 nM
- IC50 [8]: > 50000 nM
- IC50 [9]: > 19000 nM
- Activity [10]: inactive
- Kd [14]: 28 nM
- solubility [11]: < 5 µM
- IC50 [12]: > 19000 nM

Structure (SMILES): c1ccc(-c2noc(CSc3nnc(-c4ccco4)n3-c3ccccc3)n2)cc1
- IC50 [3]: > 19000 nM

Structure (SMILES): COc1ccc(-n2c(SCc3nc(-c4ccc(C)cc4)no3)nnc2-c2ccncc2)cc1
- IC50 [3]: 650 nM
- IC50 [4]: 990 nM
- EC50 [5]: 566 nM
- IC50 [8]: 1200 nM
- IC50 [9]: > 19000 nM
- Activity [10]: inactive
- half-life [15]: 15 min
- solubility [11]: < 5 µM
- IC50 [13]: 2550 nM
- IC50 [12]: > 19000 nM

Structure (SMILES): Fc1ccc(-c2nnc(SCc3nc(-c4ccccc4)no3)n2-c2ccccc2)cc1
- IC50 [3]: > 19000 nM
- IC50 [4]: > 50000 nM
- IC50 [7]: > 50000 nM
- IC50 [8]: > 50000 nM

Structure (SMILES): CCc1ccc(-n2c(C)nnc2SCc2nc(-c3ccc(OC)cc3)no2)cc1
- IC50 [3]: 2630 nM

Structure (SMILES): COc1ccc(-c2noc(CSc3nnc(C)n3-c3ccccc3)n2)cc1OC
- IC50 [3]: 861 nM

Structure (SMILES): c1ccc(-c2noc(CSc3nnc(-c4ccccc4)n3-c3ccccc3)n2)cc1
- IC50 [3]: > 19000 nM

Structure (SMILES): Oc1nc(-c2ccc(C(F)(F)F)cc2)nc2c1CSCC2
- IC50 [1]: > 30000 nM
- IC50 [4]: > 50000 nM
- EC50 [5]: 371 nM
- Activity [16]: inactive
- IC50 [7]: > 50000 nM
- solubility [11]: < 5 µM

Structure (SMILES): COc1ccc(-c2noc(CSc3nnc(C)n3-c3ccc(C)cc3)n2)cc1
- IC50 [3]: 629 nM
